Experimental data taken from PubChem BioAssay (NCI).
Where “and” joins values, the source holds several entries; their conditions need not be identical. Equal values may be shown once.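 Test compounds were applied to cells in 96-well plates for 48 hours at 5 doses. GI50 marks 50% less growth. The concentration for full growth arrest is given as TGI.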

Columns and labels:
Assay in all cases: NCI tumour cell line growth inhibition, 48 h
HCT-116 colon = test system: HCT-116 colon
HCC-2998 colon = test system: HCC-2998 colon
SNB-19 CNS = test system: SNB-19 CNS
CAKI-1 renal = test system: CAKI-1 renal
NCI-H460 lung = test system: NCI-H460 lung
SF-539 CNS = test system: SF-539 CNS
SF-295 CNS = test system: SF-295 CNS
HOP-18 NSCLC = test system: HOP-18 NSCLC
SW-620 colon = test system: SW-620 colon
DMS 114 small cell lung = test system: DMS 114 small cell lung
HT29 colon = test system: HT29 colon
NCI-H226 lung = test system: NCI-H226 lung
COLO 205 colon = test system: COLO 205 colon
MOLT-4 leukemia = test system: MOLT-4 leukemia
XF 498 CNS = test system: XF 498 CNS
HOP-92 NSCLC = test system: HOP-92 NSCLC
K-562 leukemia = test system: K-562 leukemia
RPMI-8226 leukemia = test system: RPMI-8226 leukemia
SN12C renal = test system: SN12C renal
HL-60(TB) leukemia = test system: HL-60(TB) leukemia
NCI-H23 lung = test system: NCI-H23 lung
NCI/ADR-RES ovarian = test system: NCI/ADR-RES ovarian
A549 NSCLC = test system: A549 NSCLC
LOX IMVI melanoma = test system: LOX IMVI melanoma
SN12K1 renal = test system: SN12K1 renal
DLD-1 colon = test system: DLD-1 colon
MCF7 breast = test system: MCF7 breast
OVCAR-5 ovarian = test system: OVCAR-5 ovarian
A498 renal = test system: A498 renal
SK-MEL-2 melanoma = test system: SK-MEL-2 melanoma
U251 CNS = test system: U251 CNS
SK-MEL-5 melanoma = test system: SK-MEL-5 melanoma
UO-31 renal = test system: UO-31 renal
M19-MEL melanoma = test system: M19-MEL melanoma
SNB-78 CNS = test system: SNB-78 CNS
EKVX NSCLC = test system: EKVX NSCLC
SNB-75 CNS = test system: SNB-75 CNS
UACC-257 melanoma = test system: UACC-257 melanoma
IGROV1 ovarian = test system: IGROV1 ovarian
OVCAR-8 ovarian = test system: OVCAR-8 ovarian
HCT-15 colon = test system: HCT-15 colon
KM20L2 colon = test system: KM20L2 colon
HOP-62 NSCLC = test system: HOP-62 NSCLC
KM12 colon = test system: KM12 colon
SF-268 CNS = test system: SF-268 CNS
CCRF-CEM leukemia = test system: CCRF-CEM leukemia
P388/ADR leukemia = test system: P388/ADR leukemia
OVCAR-3 ovarian = test system: OVCAR-3 ovarian
NCI-H522 lung = test system: NCI-H522 lung
OVCAR-4 ovarian = test system: OVCAR-4 ovarian
SK-OV-3 ovarian = test system: SK-OV-3 ovarian
MALME-3M melanoma = test system: MALME-3M melanoma
DMS 273 small cell lung = test system: DMS 273 small cell lung
UACC-62 melanoma = test system: UACC-62 melanoma
MDA-MB-231 breast = test system: MDA-MB-231 breast
HS 578T breast = test system: HS 578T breast
P388 leukemia = test system: P388 leukemia
MDA-MB-435 = test system: MDA-MB-435
M14 melanoma = test system: M14 melanoma
MDA-N = test system: MDA-N
SK-MEL-28 melanoma = test system: SK-MEL-28 melanoma
RXF 393 renal = test system: RXF 393 renal

`CC1[C@@H]2CC=C3C4CCC5Cc6nc7c(nc6C[C@@]5(C)C4CC(=O)[C@]32CO[C@@]1(O)C(O)CC(C)(C)O)CC1CCC2C3=C[C@H]4O[C@@]5(O[C@@](C)(CO)C[C@@H]5O)C(C)[C@@]4(O)[C@]3(C)[C@@H](O)CC2[C@]1(C)C7` (stereo partly specified) showed a TGI (HCT-116 colon) of 0.501 µM, a TGI (HCC-2998 colon) of 0.832 µM and a TGI (SNB-19 CNS) of 0.329 µM. It also gave a TGI (CAKI-1 renal) of 0.417 µM, a TGI (NCI-H460 lung) of 0.0364 µM and a TGI (SF-539 CNS) of 0.0423 µM. The TGI (SF-295 CNS) was 0.000713 µM, the TGI (HOP-18 NSCLC) was 0.739 µM and the TGI (SW-620 colon) was 0.0564 µM. It also gave a TGI (DMS 114 small cell lung) of 0.0471 µM, a TGI (HT29 colon) of 0.0484 µM and a TGI (NCI-H226 lung) of 0.376 µM. The TGI (COLO 205 colon) was 0.0608 µM, the TGI (MOLT-4 leukemia) was 0.376 µM and the TGI (XF 498 CNS) was 0.0502 µM. For the same compound, the TGI (HOP-92 NSCLC) was 1.12 µM, the TGI (K-562 leukemia) was 0.434 µM and the TGI (RPMI-8226 leukemia) was 0.045 µM. It also gave a TGI (SN12C renal) of 2.9 µM, a TGI (HL-60(TB) leukemia) of 0.0581 µM and a TGI (NCI-H23 lung) of 0.0272 µM. It also gave a TGI (NCI/ADR-RES ovarian) of 2.74 µM, a TGI (A549 NSCLC) of 0.383 µM and a TGI (LOX IMVI melanoma) of 0.0914 µM. The TGI (SN12K1 renal) was 0.406 µM, the TGI (DLD-1 colon) was 1.15 µM and the TGI (MCF7 breast) was 0.192 µM. The TGI (OVCAR-5 ovarian) was 0.0628 µM, the TGI (A498 renal) was 0.0112 µM and the TGI (SK-MEL-2 melanoma) was 0.0891 µM. It also gave a TGI (U251 CNS) of 0.0345 µM, a TGI (SK-MEL-5 melanoma) of 0.0469 µM and a TGI (UO-31 renal) of 0.0836 µM. The TGI (M19-MEL melanoma) was 0.729 µM, the TGI (SNB-78 CNS) was 0.483 µM and the TGI (EKVX NSCLC) was 0.0479 µM. For the same compound, the TGI (SNB-75 CNS) was 0.00313 µM, the TGI (UACC-257 melanoma) was 0.112 µM and the TGI (IGROV1 ovarian) was 0.736 µM. It also gave a TGI (OVCAR-8 ovarian) of 3.6 µM, a TGI (HCT-15 colon) of 0.33 µM and a TGI (KM20L2 colon) of 0.137 µM. It also gave a TGI (HOP-62 NSCLC) of 0.00248 µM, a TGI (KM12 colon) of 0.571 µM and a TGI (SF-268 CNS) of 0.124 µM. The TGI (CCRF-CEM leukemia) was 0.0294 µM, the TGI (P388/ADR leukemia) was 0.0891 µM and the TGI (OVCAR-3 ovarian) was 2.36 µM. It also gave a TGI (NCI-H522 lung) of 0.124 µM, a TGI (OVCAR-4 ovarian) of 1.29 µM and a TGI (SK-OV-3 ovarian) of 0.0279 µM. For the same compound, the TGI (MALME-3M melanoma) was 0.0911 µM, the TGI (DMS 273 small cell lung) was 0.00174 µM and the TGI (UACC-62 melanoma) was 0.0108 µM.
With `CO[C@H]1C[C@@H]2CC[C@@H](C)[C@@](O)(O2)C(=O)C(=O)N2CCCC[C@H]2C(=O)O[C@H]([C@H](C)C[C@@H]2CC[C@@H](O)[C@H](OC)C2)CC(=O)[C@H](C)C=C(C)[C@@H](O)[C@@H](OC)C(=O)[C@H](C)C[C@H](C)/C=C/C=C/C=C1C` the TGI (HCC-2998 colon) was 13.8 µM and 26.6 µM and 47.9 µM, the TGI (SF-539 CNS) was 14.6 µM and 22.4 µM and 82.9 µM and the TGI (HOP-18 NSCLC) was 133 µM. For the same compound, the TGI (MDA-MB-231 breast) was 26.3 µM and 170 µM, the TGI (DMS 114 small cell lung) was 31.5 µM and the TGI (HS 578T breast) was 13.7 µM and 86.4 µM. For the same compound, the TGI (K-562 leukemia) was 40.5 µM and 365 µM, the TGI (HL-60(TB) leukemia) was 24.2 µM and 144 µM and the TGI (SN12K1 renal) was 20.9 µM. The TGI (DLD-1 colon) was 25.2 µM, the TGI (P388 leukemia) was 27.8 µM and the TGI (SK-MEL-2 melanoma) was 17.6 µM and 34.9 µM and 67.2 µM. For the same compound, the TGI (MDA-MB-435) was 25.9 µM and 126 µM, the TGI (M14 melanoma) was 27.2 µM and 144 µM and the TGI (SNB-78 CNS) was 16.9 µM. For the same compound, the GI50 (MDA-N) was 79.1 µM, the TGI (OVCAR-8 ovarian) was 27.7 µM and 62 µM and 243 µM and the TGI (KM20L2 colon) was 41.5 µM. The TGI (OVCAR-4 ovarian) was 6.85 µM and 27 µM and the TGI (DMS 273 small cell lung) was 33.7 µM.
In the case of `O=C1c2ccccc2OCC1/C=N/O` (stereo unspecified), the TGI (HCT-116 colon) is reported as greater than 100 µM, the TGI (HCC-2998 colon) is reported as greater than 100 µM and the TGI (NCI-H460 lung) is reported as greater than 100 µM. The TGI (SF-539 CNS) was greater than 100 µM, the TGI (SF-295 CNS) was greater than 100 µM and the TGI (HOP-18 NSCLC) was greater than 100 µM. It also gave a TGI (SW-620 colon) greater than 100 µM, a TGI (DMS 114 small cell lung) of 98.9 µM and a TGI (HT29 colon) greater than 100 µM. It also gave a TGI (NCI-H226 lung) greater than 100 µM, a TGI (MOLT-4 leukemia) greater than 100 µM and a TGI (XF 498 CNS) greater than 100 µM. The TGI (HOP-92 NSCLC) was greater than 96 µM, the TGI (K-562 leukemia) was greater than 100 µM and the TGI (RPMI-8226 leukemia) was greater than 100 µM. The TGI (SN12C renal) was greater than 100 µM, the TGI (HL-60(TB) leukemia) was greater than 100 µM and the TGI (NCI-H23 lung) was greater than 100 µM. For the same compound, the TGI (NCI/ADR-RES ovarian) was greater than 100 µM, the TGI (A549 NSCLC) was greater than 100 µM and the TGI (LOX IMVI melanoma) was greater than 100 µM. It also gave a TGI (SN12K1 renal) greater than 100 µM, a TGI (DLD-1 colon) greater than 100 µM and a TGI (P388 leukemia) greater than 63.7 µM. The TGI (MCF7 breast) was greater than 100 µM, the TGI (SK-MEL-28 melanoma) was greater than 100 µM and the TGI (OVCAR-5 ovarian) was greater than 100 µM. The TGI (A498 renal) was greater than 100 µM, the TGI (SK-MEL-2 melanoma) was greater than 100 µM and the TGI (U251 CNS) was greater than 100 µM. It also gave a TGI (SK-MEL-5 melanoma) greater than 100 µM, a TGI (UO-31 renal) greater than 100 µM and a TGI (M19-MEL melanoma) greater than 100 µM. It also gave a TGI (SNB-78 CNS) greater than 100 µM, a TGI (RXF 393 renal) of 76.4 µM and a TGI (EKVX NSCLC) greater than 100 µM. The TGI (SNB-75 CNS) was greater than 100 µM, the TGI (UACC-257 melanoma) was greater than 100 µM and the TGI (IGROV1 ovarian) was greater than 100 µM. For the same compound, the TGI (OVCAR-8 ovarian) was greater than 100 µM, the TGI (HCT-15 colon) was greater than 100 µM and the TGI (HOP-62 NSCLC) was greater than 100 µM. It also gave a TGI (KM12 colon) greater than 100 µM, a TGI (SF-268 CNS) greater than 100 µM and a TGI (CCRF-CEM leukemia) greater than 100 µM. For the same compound, the TGI (OVCAR-3 ovarian) was greater than 100 µM, the TGI (NCI-H522 lung) was 62.1 µM and the TGI (OVCAR-4 ovarian) was greater than 100 µM. The TGI (SK-OV-3 ovarian) was greater than 100 µM, the TGI (MALME-3M melanoma) was greater than 100 µM and the TGI (DMS 273 small cell lung) was greater than 100 µM. It also gave a TGI (UACC-62 melanoma) greater than 100 µM.
